In publication PMC5034043 (The Journal of Biological Chemistry, 2016):
Where two headings read alike, the source gives them in different places.

Tests used:
synaptosomal proteome = format: binding, mouse
Description: (§1) Synaptosomes were resuspended to 1 mg of protein/ml in HEPES buffer medium (in mM: 140 NaCl, 5 KCl, 5 NaHCO3, 1.2 NaH2PO4, 1 MgCl2, 10 glucose, and 10 HEPES (pH 7.4)). […] The samples were allowed to equilibrate for 5 min before being transferred to a parafilm-sealed 1-mm path length quartz cuvette. The sample was then irradiated for 20 min at a peak bandwidth of 350 nm (Rayonet RPR-3500 lamp) ∼6 cm from the light source. Non-irradiated samples were left in the dark at ambient temperature (22–25 °C) for 20 min. All remaining procedures were conducted with restricted light exposure.
(§2) To 750 μg of photolabeled or control synaptosome samples, 40 μl of 10% SDS and 2 μl of 5 mM DTT in water were added. Samples were then vortexed, heated for 10 min at 65 °C, and then briefly cooled. Final concentrations of 150 μM azide-biotin (Click Chemistry Tools), 2 mM tris(3-hydroxypropyltriazolylmethyl)amine (Sigma), 1 mM ascorbic acid (Sigma), and 1 mM CuSO4·5H2O (Sigma) were added to each sample and vortexed vigorously. The samples were left in the dark at ambient temperature (22–25 °C) for 1 h with mild agitation. Directly to each sample 4× volume chilled methanol, 1.5× chilled chloroform, and 3× chilled double distilled H2O were added. Samples were vortexed vigorously and centrifuged at 1,400 × g for 30 min at 4 °C. Both liquid layers were carefully removed, and the protein pellet was washed with 2 ml of 1:1 (v/v) chilled methanol/chloroform. Samples were centrifuged at 3,500 × g for 30 min at 4 °C. Protein pellets were briefly air-dried before further processing.
750 μg of biotin-conjugated protein sample was resuspended in 500 μl of 25 mM NH4HCO3 and 6 M urea in water. Next, 150 μl of 5% Triton X-100 in water, 50 μl of 10% SDS in water, and 1.5 μl of 0.5 M DTT were added. The samples were heated for 15 min at 65 °C. After briefly cooling, 14 μl of 0.5 M iodoacetamide in water was added, and the sample was left in the dark for 45 min. […] The supernatant was diluted to 4 ml with PBS, and 2 ml of PBS containing 100 μl of 50% streptavidin-agarose resin (Thermo Scientific) was added. Biotinylated proteins within the sample were captured over resin overnight at 4 °C with mild agitation. The resin was first washed with 6 ml of 1% SDS in PBS, and then 7 ml of 0.1 M urea in PBS followed by 10 ml of PBS. The resin underwent a final wash with 0.9 ml of 50 mM Tris-HCl and 1 mM CaCl2 in water (pH 8.0) and then resuspended in 200 μl of 50 mM Tris-HCl, 1 mM CaCl2 in water (pH 8.0), and 2 μg of porcine sequencing grade trypsin (Promega). Samples were digested overnight at 37 °C. Samples were then centrifuged at 2,000 × g for 4 min, and digest supernatant was decanted. Beads were washed in 100 μl of PBS centrifuged at 5,200 × g for 5 min, and the wash was combined with the digest supernatant. To the combined sample, trifluoroacetic acid (TFA) was added to 0.4% (v/v) or until pH <2. The sample was desalted with Oasis C18 10-mg columns (Waters) as described previously ([66]). The eluted sample was dried by speed vac and resuspended in 0.1 M HEPES buffer (pH 8.5). […] Appropriate corresponding TMTsixplex^TM-labeled samples were pooled and dried by speed vac. The combined samples were resuspended in 0.5% acetic acid in water and pH-corrected with acetic acid until pH was <2. 40 μg of protein was desalted with C18 stage tips prepared in-house and dried by speed vac.
Samples were resuspended in 10 mM KH2PO4 (pH 2.6), 30% acetonitrile (v/v) in water, and fractionated by off-line strong cation exchange chromatography prior to mass spectrometry (MS) analysis similar to as reported previously ([66]). The full synaptosome proteome control was prepared similarly without TMTsixplex^TM labeling.
All TMT samples were analyzed with three-stage mass spectrometry (MS3) TMTsixplex^TM quantification workflow as described previously ([34]).

X. laevis tadpoles = experiment: In vivo photolabeling in tadpoles (recovery after UV irradiation); parameters: species or system Xenopus laevis; conditions: 12 μM for 30 min, then 10 min low intensity UV irradiation
Description: Tadpoles were then exposed to 10 min of low intensity UV irradiation or were maintained as a 10-min non-UV irradiation control.
Behavioral activity was initially determined in albino X. laevis tadpoles (stages 45–47) as described previously ([29], [33]). All animal care and experimental procedures involving X. laevis tadpoles were carried out according to a protocol approved by the IACUC of the University of Pennsylvania.

[1] = buffer
[2] = tested on: alkylphenol-binding proteins within synaptosomes; experiment: Fluorescent profiling: protection from AziPm-click (1) photolabeling of synaptosomes; parameters: species or system mouse; conditions: propofol 75–375 μM; ketamine 150–450 μM; triplicate
Description: as §1

GABAA receptor subunits = experiment: Western blotting of streptavidin-captured GABAA receptor subunits with ligand protection; format: binding, mouse; conditions: AziPm-click (1) 10 μM, protecting ligand 100 μM, UV irradiation; n = 4
Description: as §1
as §2, with “Both liquid layers were carefully removed, and the protein pellet was washed with 2 ml of 1:1 (v/v) chilled methanol/chloroform. Samples were centrifuged at 3,500 × g for 30 min at 4 °C. Protein pellets were briefly air-dried before further processing.” left out

[3] = protein A2AI17 Glutamate receptor ionotropic, NMDA 1 (Grin1)
[4] = protein P70429-2 Isoform 1 of Ena/VASP-like protein (Evl)
[5] = protein P97300-3 Isoform 3 of Neuroplastin (Nptn)
[6] = protein Q8BJU0-2 Isoform 2 of Small glutamine-rich tetratricopeptide repeat-containing protein alpha (Sgta)
[7] = protein Q9DBF1-2 Isoform 2 of Alpha-aminoadipic semialdehyde dehydrogenase (Aldh7a1)
[8] = protein Q9EPJ9-2 Isoform 2 of ADP-ribosylation factor GTPase-activating protein 1 (Arfgap1)
[9] = protein Q8CFX3 Protein Pcdh1 (Pcdh1)

SMILES: C#CCOCc1ccc(C2(C(F)(F)F)N=N2)cc1O [AziPm-click (1), 2-((prop-2-yn-1-yloxy)methyl)-5-(3-(trifluoromethyl)-3H-diazirin-3-yl)phenol]
- TMT Ratio Mean 'UV/ No UV' (synaptosomal proteome; O35633-2 Slc32a1): 20.27
- TMT Ratio Mean 'UV/ No UV' (synaptosomal proteome; P60879-2 Snap25): 23.67
- Log2( Mean 'UV/ No UV') (synaptosomal proteome; [3]): 3.36
- TMT Ratio Mean 'UV/ No UV' (synaptosomal proteome; [3]): 10.28
- TMT Ratio Mean 'UV/ No UV' (synaptosomal proteome; protein P23819-4 Isoform 4 of Glutamate receptor 2 (Gria2)): 12.58
- TMT Ratio Mean 'UV/ No UV' (synaptosomal proteome; [4]): 19.89
- TMT Ratio Mean 'UV/ No UV' (synaptosomal proteome; [5]): 12.71
- TMT Ratio Mean 'UV/ No UV' (synaptosomal proteome; [6]): 15.19
- TMT Ratio Mean 'UV/ No UV' (synaptosomal proteome; [7]): 14.82
- TMT Ratio Mean 'UV/ No UV' (synaptosomal proteome; [8]): 10.88
- immobility after drug washout (X. laevis tadpoles): prolonged immobility after drug washout
- half-life (t½) of time-dependent photoreactivity [1]: 25 min

SMILES: CC(C)c1cccc(C(C)C)c1O [propofol, 2,6-diisopropylphenol, reference compound]
- Log2( Mean 'UV/ UV+propofol') (synaptosomal proteome; O35633-2 Slc32a1): 1.24
- % propofol protection (synaptosomal proteome; Q8BKX1-4 Baiap2): 71%
- Log2( Mean 'UV/ UV+propofol') (synaptosomal proteome; Q8BKX1-4 Baiap2): 1.77
- % propofol protection (synaptosomal proteome; Q8VDQ8-2 Sirt2): 71%
- Log2( Mean 'UV/ UV+propofol') (synaptosomal proteome; Q8VDQ8-2 Sirt2): 1.61
- decrease in enrichment factor with propofol protection (synaptosomal proteome; five GABAA receptor subunits (α1,3 and β1–3), enrichment factor = mean (+)UV/(−)UV TMT ratio): at least 10
- % propofol protection (synaptosomal proteome; [3]): 57%
- Log2( Mean 'UV/ UV+propofol') (synaptosomal proteome; [3]): 1.07
- % propofol protection (synaptosomal proteome; [4]): 56%
- Log2( Mean 'UV/ UV+propofol') (synaptosomal proteome; [4]): 1.14
- Log2( Mean 'UV/ UV+propofol') (synaptosomal proteome; [5]): 1.17
- % propofol protection (synaptosomal proteome; [6]): 56%
- Log2( Mean 'UV/ UV+propofol') (synaptosomal proteome; [6]): 1.02
- % propofol protection (synaptosomal proteome; [9]): 50%
- Log2( Mean 'UV/ UV+propofol') (synaptosomal proteome; [9]): 0.87
- % propofol protection (synaptosomal proteome; [7]): 52%
- Log2( Mean 'UV/ UV+propofol') (synaptosomal proteome; [7]): 0.94
- % propofol protection (synaptosomal proteome; [8]): 56%
- Log2( Mean 'UV/ UV+propofol') (synaptosomal proteome; [8]): 1.06
- fluorescent labeling of synaptosomal proteins by AziPm-click (1) in presence of protecting ligand [2]: decreased
- protection of GABAA receptor α and β subunits from AziPm-click (1) capture (GABAA receptor subunits): significant decreases in capture efficiency
